Assay: Foam evaluation of the prepared solutions: whether foam was produced, and foam description and quality
Type: physicochemical
Procedure: Examples 1 through 12 were prepared to illustrate the ability to produce alcohol-based disinfecting formulations which can be dispensed as foams using different surfactants and a solution of water and 50% ethanol. Examples 13 through 16 illustrate increasing concentrations of a silicone-based surfactant to produce foam with 40% ethanol. Examples 17 through 32 show increasing concentrations of ethanol with different silicone-based surfactants to produce foam. Examples 33 through 36 illustrate increasing concentrations of a silicone-based surfactant to produce acceptable foam at 62% ethanol. Examples 37 through 52 illustrate the ability to produce foam using different surfactants and a solution of 70% v/v Isopropanol. All parts and percentages are expressed by weight unless otherwise indicated.
The following examples were intended to evaluate the foaming ability of different groups of silicone surfactants with different combinations of ethanol, n-propyl alcohol and Isopropyl alcohol. They were also designed to asses the effect in the after feel as well as in the foam quality of some emollients and humectants, lipids, and other cosmetic type desired ingredients to be used with a leave-on hand sanitizer product. […]
The solutions prepared, were evaluated as to whether foam was produced or not and if so, then the foam produced was described as follows: […]

In the case of Cocamidopropyl betaine, the “Foam result compared with silicone-based surfactants” value (CAPB alone, 40% ethanol, 3% CAPB, versus 60% v/v ethanol with less than 1.0% silicone-based surfactant) is reported as “unable to produce as good results” and the Acceptable foam (above 40% ethanol) is reported as “does not give any acceptable foam”.

From patent US8309111B2, “High alcohol content foaming compositions with silicone-based surfactants” (Deb Worldwide Healthcare Inc., priority 2005, dated 2012)
